target: T1, rat NaPi-2b (Rattus norvegicus, UniProt Q9JJ09); assay: Sodium-dependent phosphate uptake of Xenopus oocytes which expressed NaPi-2b (32P); assay type: cell-based; settings: Xenopus oocytes expressing rat NaPi-2b, 32P radioactive phosphorus; read-out: IC50 (phosphate uptake inhibitory activity)
T1 construct: expressed in transfected cells; host or cells: Xenopus oocytes injected with cRNA
T1 sequence (Q9JJ09 1-695): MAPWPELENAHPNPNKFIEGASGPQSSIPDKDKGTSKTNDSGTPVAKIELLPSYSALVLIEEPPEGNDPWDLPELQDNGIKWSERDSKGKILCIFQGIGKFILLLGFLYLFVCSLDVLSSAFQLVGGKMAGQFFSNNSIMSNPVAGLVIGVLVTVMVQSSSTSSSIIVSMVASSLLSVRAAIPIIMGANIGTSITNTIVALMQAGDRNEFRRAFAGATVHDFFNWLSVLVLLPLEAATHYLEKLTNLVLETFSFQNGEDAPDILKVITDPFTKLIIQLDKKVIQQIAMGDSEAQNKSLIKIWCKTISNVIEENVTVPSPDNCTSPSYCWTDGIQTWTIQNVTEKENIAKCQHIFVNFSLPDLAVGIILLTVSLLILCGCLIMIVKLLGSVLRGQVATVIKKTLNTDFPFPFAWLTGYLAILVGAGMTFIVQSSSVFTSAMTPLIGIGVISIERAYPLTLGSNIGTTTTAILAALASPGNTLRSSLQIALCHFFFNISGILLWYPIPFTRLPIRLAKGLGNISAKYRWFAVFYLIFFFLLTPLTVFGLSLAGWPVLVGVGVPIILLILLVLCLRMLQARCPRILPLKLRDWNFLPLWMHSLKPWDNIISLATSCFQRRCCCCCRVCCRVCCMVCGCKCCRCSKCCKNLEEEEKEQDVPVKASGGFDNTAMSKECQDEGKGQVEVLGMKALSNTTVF
Outline: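 Steps: rat NaPi-2b cDNA cloned from small intestine; cRNA made and injected into oocytes; 2-day expression; 32P phosphate uptake with compound; % inhibition at 300/100 μM taken from one curve.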

Row | SMILES | IC50 [µM]
1 | CN(CCO)Cc1cccc(C(=O)Nc2ccc(Cl)cc2C(=O)N/N=C/c2ccc(O)cc2)c1 [Compound 403, N-[4-Chloro-2-(4-hydroxy-benzylidene-hydrazinocarbonyl)-phenyl]-3-{[(2-hydroxy-ethyl)-methyl-amino]-methyl}-benzamide] | 26.7
2 | Cc1cccc(/C=N/NC(=O)c2cc(Cl)ccc2NC(=O)c2cccc(CN(CCO)CCO)c2)c1 [Compound 404, 3-{[Bis-(2-hydroxy-ethyl)-amino]-methyl}-N-[4-chloro-2-(3-methyl-benzylidene-hydrazinocarbonyl)-phenyl]-benzamide] | 2.18
3 | Cc1ccc(/C=N/NC(=O)c2cc(Cl)ccc2NC(=O)c2cccc(CN(CCO)CCO)c2)cc1 [Compound 405, 3-{[Bis-(2-hydroxy-ethyl)-amino]-methyl}-N-[4-chloro-2-(4-methyl-benzylidene-hydrazinocarbonyl)-phenyl]-benzamide] | 1.9
4 | Cc1ccc(/C=N/NC(=O)c2cc(Cl)ccc2NC(=O)c2cccc(CN(CCO)CCO)c2)cc1C [Compound 406, 3-{[Bis-(2-hydroxy-ethyl)-amino]-methyl}-N-[4-chloro-2-(3,4-dimethyl-benzylidene-hydrazinocarbonyl)-phenyl]-benzamide] | 0.88
5 | O=C(Nc1ccc(Cl)cc1C(=O)N/N=C/c1ccc(Cl)c(C(F)(F)F)c1)c1cccc(CN(CCO)CCO)c1 [Compound 407, 3-{[Bis-(2-hydroxy-ethyl)-amino]-methyl}-N-[4-chloro-2-(4-chloro-3-trifluoromethyl-benzylidene-hydrazinocarbonyl)-phenyl]-benzamide] | 0.57
6 | COc1cccc(/C=N/NC(=O)c2cc(Cl)ccc2NC(=O)c2cccc(CN(CCO)CCO)c2)c1 [Compound 408, 3-{[Bis-(2-hydroxy-ethyl)-amino]-methyl}-N-[4-chloro-2-(3-methoxy-benzylidene-hydrazinocarbonyl)-phenyl]-benzamide] | 0.69
7 | COc1ccc(/C=N/NC(=O)c2cc(Cl)ccc2NC(=O)c2cccc(CN(CCO)CCO)c2)cc1 [Compound 409, 3-{[Bis-(2-hydroxy-ethyl)-amino]-methyl}-N-[4-chloro-2-(4-methoxy-benzylidene-hydrazinocarbonyl)-phenyl]-benzamide] | 2.52
8 | O=C(Nc1ccc(Cl)cc1C(=O)N/N=C/c1cccc(O)c1)c1cccc(CN(CCO)CCO)c1 [Compound 410, 3-{[Bis-(2-hydroxy-ethyl)-amino]-methyl}-N-[4-chloro-2-(3-hydroxy-benzylidene-hydrazinocarbonyl)-phenyl]-benzamide] | 4.05
9 | O=C(Nc1ccc(Cl)cc1C(=O)N/N=C/c1ccc(O)cc1)c1cccc(CN(CCO)CCO)c1 [Compound 411, 3-{[Bis-(2-hydroxy-ethyl)-amino]-methyl}-N-[4-chloro-2-(4-hydroxy-benzylidene-hydrazinocarbonyl)-phenyl]-benzamide] | 10.1
10 | CN(CCO)Cc1ccc(C(=O)Nc2ccc(Cl)cc2C(=O)N/N=C/c2cccc(F)c2)cc1 [Compound 412, N-[4-Chloro-2-(3-fluoro-benzylidene-hydrazinocarbonyl)-phenyl]-4-{[(2-hydroxy-ethyl)-methyl-amino]-methyl}-benzamide] | 7.96
11 | CN(CCO)Cc1ccc(C(=O)Nc2ccc(Cl)cc2C(=O)N/N=C/c2ccc(F)cc2)cc1 [Compound 413, N-[4-Chloro-2-(4-fluoro-benzylidene-hydrazinocarbonyl)-phenyl]-4-{[(2-hydroxy-ethyl)-methyl-amino]-methyl}-benzamide] | < 3
12 | Cc1cccc(/C=N/NC(=O)c2cc(Cl)ccc2NC(=O)c2ccc(CN(C)CCO)cc2)c1 [Compound 414, N-[4-Chloro-2-(3-methyl-benzylidene-hydrazinocarbonyl)-phenyl]-4-{[(2-hydroxy-ethyl)-methyl-amino]-methyl}-benzamide] | < 3
13 | Cc1ccc(/C=N/NC(=O)c2cc(Cl)ccc2NC(=O)c2ccc(CN(C)CCO)cc2)cc1 [Compound 415, N-[4-Chloro-2-(4-methyl-benzylidene-hydrazinocarbonyl)-phenyl]-4-{[(2-hydroxy-ethyl)-methyl-amino]-methyl}-benzamide] | < 3
14 | Cc1ccc(/C=N/NC(=O)c2cc(Cl)ccc2NC(=O)c2ccc(CN(C)CCO)cc2)cc1C [Compound 416, N-[4-Chloro-2-(3,4-dimethyl-benzylidene-hydrazinocarbonyl)-phenyl]-4-{[(2-hydroxy-ethyl)-methyl-amino]-methyl}-benzamide] | 3.25
15 | CN(CCO)Cc1ccc(C(=O)Nc2ccc(Cl)cc2C(=O)N/N=C/c2ccc(Cl)c(C(F)(F)F)c2)cc1 [Compound 417, N-[4-Chloro-2-(4-chloro-3-trifluoromethyl-benzylidene-hydrazinocarbonyl)-phenyl]-4-{[(2-hydroxy-ethyl)-methyl-amino]-methyl}-benzamide] | < 3
16 | COc1cccc(/C=N/NC(=O)c2cc(Cl)ccc2NC(=O)c2ccc(CN(C)CCO)cc2)c1 [Compound 418, N-[4-Chloro-2-(3-methoxy-benzylidene-hydrazinocarbonyl)-phenyl]-4-{[(2-hydroxy-ethyl)-methyl-amino]-methyl}-benzamide] | 9.38
17 | COc1ccc(/C=N/NC(=O)c2cc(Cl)ccc2NC(=O)c2ccc(CN(C)CCO)cc2)cc1 [Compound 419, N-[4-Chloro-2-(4-methoxy-benzylidene-hydrazinocarbonyl)-phenyl]-4-{[(2-hydroxy-ethyl)-methyl-amino]-methyl}-benzamide] | 9.2
18 | CN(CCO)Cc1ccc(C(=O)Nc2ccc(Cl)cc2C(=O)N/N=C/c2cccc(O)c2)cc1 [Compound 420, N-[4-Chloro-2-(3-hydroxy-benzylidene-hydrazinocarbonyl)-phenyl]-4-{[(2-hydroxy-ethyl)-methyl-amino]-methyl}-benzamide] | 27.1
19 | CN(CCO)Cc1ccc(C(=O)Nc2ccc(Cl)cc2C(=O)N/N=C/c2ccc(O)cc2)cc1 [Compound 421, N-[4-Chloro-2-(4-hydroxy-benzylidene-hydrazinocarbonyl)-phenyl]-4-{[(2-hydroxy-ethyl)-methyl-amino]-methyl}-benzamide] | 29.6
20 | CCN(CCO)Cc1cccc(C(=O)Nc2ccc(Cl)cc2C(=O)N/N=C/c2cccc(F)c2)c1 [Compound 422, N-[4-Chloro-2-(3-fluoro-benzylidene-hydrazinocarbonyl)-phenyl]-3-{[ethyl-(2-hydroxy-ethyl)-amino]-methyl}-benzamide] | 1.15
21 | CCN(CCO)Cc1cccc(C(=O)Nc2ccc(Cl)cc2C(=O)N/N=C/c2ccc(F)cc2)c1 [Compound 423, N-[4-Chloro-2-(4-fluoro-benzylidene-hydrazinocarbonyl)-phenyl]-3-{[ethyl-(2-hydroxy-ethyl)-amino]-methyl}-benzamide] | < 3
22 | CCN(CCO)Cc1cccc(C(=O)Nc2ccc(Cl)cc2C(=O)N/N=C/c2cccc(C)c2)c1 [Compound 424, N-[4-Chloro-2-(3-methyl-benzylidene-hydrazinocarbonyl)-phenyl]-3-{[ethyl-(2-hydroxy-ethyl)-amino]-methyl}-benzamide] | 1.79
23 | CCN(CCO)Cc1cccc(C(=O)Nc2ccc(Cl)cc2C(=O)N/N=C/c2ccc(C)cc2)c1 [Compound 425, N-[4-Chloro-2-(4-methyl-benzylidene-hydrazinocarbonyl)-phenyl]-3-{[ethyl-(2-hydroxy-ethyl)-amino]-methyl}-benzamide] | < 3
24 | CCN(CCO)Cc1cccc(C(=O)Nc2ccc(Cl)cc2C(=O)N/N=C/c2ccc(C)c(C)c2)c1 [Compound 426, N-[4-Chloro-2-(3,4-dimethyl-benzylidene-hydrazinocarbonyl)-phenyl]-3-{[ethyl-(2-hydroxy-ethyl)-amino]-methyl}-benzamide] | 1.89
25 | CCN(CCO)Cc1cccc(C(=O)Nc2ccc(Cl)cc2C(=O)N/N=C/c2ccc(Cl)c(C(F)(F)F)c2)c1 [Compound 427, N-[4-Chloro-2-(4-chloro-3-trifluoromethyl-benzylidene-hydrazinocarbonyl)-phenyl]-3-{[ethyl-(2-hydroxy-ethyl)-amino]-methyl}-benzamide] | < 3
26 | CCN(CCO)Cc1cccc(C(=O)Nc2ccc(Cl)cc2C(=O)N/N=C/c2cccc(OC)c2)c1 [Compound 428, N-[4-Chloro-2-(3-methoxy-benzylidene-hydrazinocarbonyl)-phenyl]-3-{[ethyl-(2-hydroxy-ethyl)-amino]-methyl}-benzamide] | 1.82
27 | CCN(CCO)Cc1cccc(C(=O)Nc2ccc(Cl)cc2C(=O)N/N=C/c2ccc(OC)cc2)c1 [Compound 429, N-[4-Chloro-2-(4-methoxy-benzylidene-hydrazinocarbonyl)-phenyl]-3-{[ethyl-(2-hydroxy-ethyl)-amino]-methyl}-benzamide] | 5.88
28 | CCN(CCO)Cc1cccc(C(=O)Nc2ccc(Cl)cc2C(=O)N/N=C/c2cccc(O)c2)c1 [Compound 430, N-[4-Chloro-2-(3-hydroxy-benzylidene-hydrazinocarbonyl)-phenyl]-3-{[ethyl-(2-hydroxy-ethyl)-amino]-methyl}-benzamide] | 4.53

Reference: patent US8134015B2, “Compound inhibiting in vivo phosphorous transport and medicine containing the same” (Kyowa Hakko Kirin Co., Ltd., priority 2003, dated 2012)
